{"source": "patent US12384771B2", "about": "“Pleuromutilin derivative containing thiazole-pyridine benzyl quaternary ammonium salt side chain and preparation method and use thereof” (SHAANXI UNIVERSITY OF SCIENCE AND TECHNOLOGY, priority 2022, dated 2025)", "type_in_all_cases": "cell-based", "key": {"[1]": {"tested_on": "Mycoplasma hyopneumoniae clinical isolate LH strain (Mhp-LH)", "experiment": "Anti-mycoplasma activity assay, MIC", "settings": "Mesomycoplasma hyopneumoniae", "procedure": "(§1) The minimum inhibitory concentration of the pleuromutilin derivative containing thiazole-pyridine benzyl quaternary ammonium salt side chain against different mycoplasmas was tested with tiamulin as (purchased from Shanghai Yuanye Bio-Technology Co., Ltd) a positive control using a microbroth dilution method, and the antibacterial effect of the compound against different mycoplasmas was evaluated.\n(§2) Experimental strains include Mycoplasma hyopneumoniae standard strain J strain (Mhp-J; NCTC 10110), Mycoplasma hyopneumoniae clinical isolate LH strain (Mhp-LH), Mycoplasma hyorhini standard strain BTS-7 strain (Mhr-BTS-7; NCTC 10130), Mycoplasma gallisepticum R strain (MG-R) and Mycoplasma synoviae WVU1853 strain (MS-WVU1853; NCTC 10124) (purchased from National Collection of Type Cultures, United Kingdom).\n(§3) The specific operation steps are as follows: • (1) preparation of KM2 medium: 38.9 g of KM2 medium (purchased from Guangdong Huankai Microbial Sci. & Tech. Co., Ltd.) was weighed, added to 800 mL of distilled water, boiled and dissolved, and autoclaved at 115° C. for 20 min for later use. • (2) preparation of bacterial liquid stock: 0.5 mL of each of Mycoplasma hyopneumoniae (Mhp), Mycoplasma hyorhina (Mhr), Mycoplasma gallisepticum (MG) and Mycoplasma synoviae (MS) was taken and transferred to 4.5 mL of KM2 liquid medium, and when the colour of the medium turned yellow, each of the bacteria was sub-packaged at 0.5 mL per tube, and stored as the bacterial liquid at −70° C. • (3) determination of bacterial liquid titre (colour change unit, CCU): 96-well plate method was used to measure the bacterial liquid titre. The preserved bacterial liquid stock was taken from −70° C., melt and equilibrated to room temperature. 0.18 mL of KM2 medium was added to each well of the middle 4 rows of the 96-well plate (that is, 4 parallels), 0.02 mL of the bacterial liquid stock was taken and added to the wells of the first column, respectively, and subjected to 10-fold dilution until 10^−11. A negative control containing only KM2 medium was set (column 12). The plate was sealed and put into an incubator at 37° C., and the results were observed day by day. The highest dilution at which the colour of the medium can change was the CCU/mL of the strain. • (4) determination of MIC: the minimum inhibitory concentration of the compound against mycoplasmas was determined by a microbroth dilution method. Each drug to be tested was prepared as a stock solution with a concentration of 2560 μg/mL, and each drug stock solution was 2-fold diluted with KM2 liquid medium, and the test concentration range was 0.015-128 μg/mL (large concentration gradient) and 0.000004-0.06 μg/mL (small concentration gradient). An appropriate amount of seed bacterial liquid was taken and diluted to 10^4 CCU/mL serially according to its titre. Drugs of various dilutions were added sequentially to the 96-well plate, and then an equal amount of diluted bacterial liquid was added. 200 μL of diluted mycoplasma liquid was set as a positive control, 200 μL of KM2 liquid culture medium was set as a negative control, and a solvent control group (10 μL of drug solvent+190 μL of mycoplasma liquid) was also set. Three parallels were set for each experiment. After all the culture plates were sealed, they were allowed to culture at 37° C. and observed daily, and the final MIC values were recorded. (See FIG. 22 for the MIC determination results of the representative compound 7 against 5 mycoplasma strains)"}, "[2]": {"tested_on": "Mycoplasma gallisepticum R strain (MG-R)", "experiment": "Anti-mycoplasma activity assay, MIC", "settings": "Mycoplasmoides gallisepticum", "procedure": "as §1, §2, §3"}, "[3]": {"tested_on": "Mycoplasma hyorhini standard strain BTS-7 strain (Mhr-BTS-7; NCTC 10130)", "experiment": "Anti-mycoplasma activity assay, MIC", "settings": "NCTC10130", "procedure": "as §1, §2, §3"}, "[4]": {"tested_on": "Mycoplasma hyopneumoniae standard strain J strain (Mhp-J; NCTC 10110)", "experiment": "Anti-mycoplasma activity assay, MIC", "settings": "Mesomycoplasma hyopneumoniae, NCTC10110", "procedure": "as §1, §2, §3"}, "[5]": {"tested_on": "Mycoplasma synoviae WVU1853 strain (MS-WVU1853; NCTC 10124)", "experiment": "Anti-mycoplasma activity assay, MIC", "settings": "Mycoplasmopsis synoviae, NCTC10124", "procedure": "as §1, §2, §3"}, "Salmonella ATCC 14028": {"tested_on": "Salmonella ATCC 14028", "experiment": "MIC, microbroth dilution, standard strains", "settings": "ATCC14028, ATCC 14028, read-out: Minimum inhibitory concentration", "summary_of_the_method": "(§4)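 Microbroth dilution MIC; moxifloxacin positive control. Test cpds: pleuromutilin derivatives bearing a thiazole-pyridine benzyl quaternary ammonium side chain.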"}, "[6]": {"tested_on": "Staphylococcus epidermidis ATCC 12228", "experiment": "MIC, microbroth dilution, standard strains", "settings": "ATCC12228, ATCC 12228, read-out: Minimum inhibitory concentration", "summary_of_the_method": "as §4"}, "[7]": {"tested_on": "Escherichia coli ATCC 25922", "experiment": "MIC, microbroth dilution, standard strains", "settings": "ATCC25922, ATCC 25922, read-out: Minimum inhibitory concentration", "summary_of_the_method": "as §4"}, "[8]": {"tested_on": "Staphylococcus aureus ATCC 29213", "experiment": "MIC, microbroth dilution, standard strains", "settings": "ATCC29213, ATCC 29213, read-out: Minimum inhibitory concentration", "summary_of_the_method": "as §4"}, "[9]": {"tested_on": "methicillin-resistant Staphylococcus aureus ATCC 33591", "experiment": "MIC, microbroth dilution, standard strains", "settings": "ATCC33591, ATCC 33591, read-out: Minimum inhibitory concentration", "summary_of_the_method": "as §4"}, "[10]": {"tested_on": "Staphylococcus aureus ATCC 25923", "experiment": "MIC, microbroth dilution, standard strains", "settings": "ATCC25923, ATCC 25923, read-out: Minimum inhibitory concentration", "summary_of_the_method": "as §4"}, "[11]": {"tested_on": "Acinetobacter baumannii ATCC 19606", "experiment": "MIC, microbroth dilution, standard strains", "settings": "ATCC19606, ATCC 19606, read-out: Minimum inhibitory concentration", "summary_of_the_method": "as §4"}, "[12]": {"tested_on": "Escherichia coli CMCC 44103", "experiment": "MIC, microbroth dilution, standard strains", "settings": "CMCC44103, CMCC 44103, read-out: Minimum inhibitory concentration", "summary_of_the_method": "as §4"}}, "note": "Structures can show the parent of a compound that is named as a salt."}
{"compound": "C=C[C@]1(C)C[C@@H](OC(=O)CSc2nc(-c3cc[n+](Cc4ccc([N+](=O)[O-])cc4)cc3)cs2)[C@]2(C)[C@H](C)CC[C@]3(CCC(=O)[C@H]32)[C@@H](C)[C@@H]1O", "note": "[Compound 7, 1-(4-(nitro)benzyl)-4-(2-(8-hydroxy-4,7,9,12-tetramethyl-3-oxo-7-vinyldecahydro-4,9a-propancyclopent[8]cyclen-5-yl)oxy)-2-oxoethyl)thiazol-4-yl)pyridyl bromide salt]", "values": [{"measurement": "MIC", "setting": "[1]", "value": 0.002, "unit": "µg/mL"}, {"measurement": "MIC", "setting": "[2]", "value": 0.004, "unit": "µg/mL"}, {"measurement": "MIC", "setting": "[3]", "value": 0.008, "unit": "µg/mL"}, {"measurement": "MIC", "setting": "[4]", "value": 0.004, "unit": "µg/mL"}, {"measurement": "MIC", "setting": "[5]", "value": 0.015, "unit": "µg/mL"}, {"measurement": "MIC", "setting": "Salmonella ATCC 14028", "value": 2, "unit": "µg/mL"}, {"measurement": "MIC", "setting": "[6]", "value": 2, "unit": "µg/mL"}, {"measurement": "MIC", "setting": "[7]", "value": 1, "unit": "µg/mL"}, {"measurement": "MIC", "setting": "[8]", "value": 0.125, "unit": "µg/mL"}, {"measurement": "MIC", "setting": "[9]", "value": 1, "unit": "µg/mL"}, {"measurement": "MIC", "setting": "[10]", "value": 0.5, "unit": "µg/mL"}, {"measurement": "MIC", "setting": "[11]", "value": 2, "unit": "µg/mL"}, {"measurement": "MIC", "setting": "[12]", "value": 0.5, "unit": "µg/mL"}]}
